One may read the kcat as the maximal rate divided by the concentration of active sites. Broadly, the Km is the substrate concentration at which the rate is half of its maximum. As usually defined, the Vmax is the top rate of the reaction or transport when substrate is in excess.

Read-outs that look alike come from different tables or passages of the source.

The source of these data is publication PMC1892040 (PLoS Medicine, 2007).

For data set [1], the target named is T1, S. mansoni TGR (Schistosoma mansoni, UniProt Q962Y6).
T1 sequence (Q962Y6 1-598): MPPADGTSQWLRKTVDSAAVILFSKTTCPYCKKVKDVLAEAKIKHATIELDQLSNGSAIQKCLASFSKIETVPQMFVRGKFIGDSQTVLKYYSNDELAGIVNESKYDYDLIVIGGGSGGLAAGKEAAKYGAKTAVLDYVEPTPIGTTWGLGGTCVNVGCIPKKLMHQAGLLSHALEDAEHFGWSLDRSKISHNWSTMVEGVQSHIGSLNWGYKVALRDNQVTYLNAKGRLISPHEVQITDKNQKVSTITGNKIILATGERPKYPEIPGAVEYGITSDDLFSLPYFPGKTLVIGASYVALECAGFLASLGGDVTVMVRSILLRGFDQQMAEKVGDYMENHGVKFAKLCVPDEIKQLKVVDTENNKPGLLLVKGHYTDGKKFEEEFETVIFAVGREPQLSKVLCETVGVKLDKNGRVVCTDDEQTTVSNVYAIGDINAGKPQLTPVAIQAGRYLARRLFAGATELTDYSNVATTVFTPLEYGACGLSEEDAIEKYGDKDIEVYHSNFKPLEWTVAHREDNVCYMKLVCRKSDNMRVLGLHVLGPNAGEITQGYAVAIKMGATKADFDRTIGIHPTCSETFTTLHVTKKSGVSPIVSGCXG
Put plainly: Kinetic analysis of recombinant S. mansoni TGR with substrates. To be noted: for Specific activity, S. mansoni TGR: NADPH + substrate; for Specific activity of recombinant TGR with substrate: Trx coupled to insulin reduction, HED in Grx assay. Here is the method:
Kinetic parameters were determined using Lineweaver–Burk plots using KaleidaGraph 4 (Synergy Software, http://www.synergy.com) least squares best fit of data and varying concentrations of one substrate while maintaining the concentration of other substrates. […] All assays were done in triplicate.

A further data set addresses T2, Human TrxR (Homo sapiens, UniProt Q16881).
T2 sequence (Q16881 1-499 isoform Q16881-5): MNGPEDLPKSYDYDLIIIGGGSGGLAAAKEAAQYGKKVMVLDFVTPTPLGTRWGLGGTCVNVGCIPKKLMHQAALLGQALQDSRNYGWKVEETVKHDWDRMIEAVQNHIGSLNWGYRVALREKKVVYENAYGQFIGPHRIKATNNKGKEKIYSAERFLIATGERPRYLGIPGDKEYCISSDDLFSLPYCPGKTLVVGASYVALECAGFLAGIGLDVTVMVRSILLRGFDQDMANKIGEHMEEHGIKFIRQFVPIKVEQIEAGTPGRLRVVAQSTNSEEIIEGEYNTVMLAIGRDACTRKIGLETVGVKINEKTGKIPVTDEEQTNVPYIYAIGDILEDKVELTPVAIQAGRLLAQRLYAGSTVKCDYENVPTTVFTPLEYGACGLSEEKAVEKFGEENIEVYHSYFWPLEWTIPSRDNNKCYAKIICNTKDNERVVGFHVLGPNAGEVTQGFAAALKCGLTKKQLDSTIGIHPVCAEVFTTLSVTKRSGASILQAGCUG
To be noted: read-out: IC50 Human TrxR, DTNB/Trx; cited from earlier work.

Data set [2] has as its target T1, S. mansoni TGR. It counts as biochemical. Details: The entire TGR ORF plus the SECIS element was subcloned into pET-24a; made in house; host or cells: Escherichia coli BL21(DE3) with pSUABC. Conditions: read-out: IC50 S. mansoni TGR, DTNB (TrxR activity).
Experimental: (§1) Assays were performed at 25 °C in 0.1 M potassium phosphate (pH 7.4), 10 mM EDTA using 100 μM NADPH unless otherwise stated.
(§2) Initial inhibitor screens were conducted in 200 μl volumes in 96 well plates with 50 μM inhibitor, 100 μM NADPH, and 5 nM TGR in 0.1 M potassium phosphate (pH 7.4), 10 mM EDTA with a preincubation step of 15 min. […] All assays were done in triplicate.
Data set [3] deals with T1, S. mansoni TGR.
Experimental: as §1, §2
Data set [4] deals with T1, S. mansoni TGR. It is filed as biochemical. Details: The entire TGR ORF plus the SECIS element was subcloned into pET-24a; made in house; host or cells: Escherichia coli BL21(DE3) with pSUABC. Conditions: read-out: IC50 S. mansoni TGR, GSSG (GR activity).
Experimental: as §1, §2
The target of data set [5] is T1, S. mansoni TGR. Put plainly: IC50, Grx activity of TGR (HED assay), 15 min preincubation. It is filed as biochemical. Details: The entire TGR ORF plus the SECIS element was subcloned into pET-24a; made in house; host or cells: Escherichia coli BL21(DE3) with pSUABC. Conditions: 8 mM HED plus 1 mM GSH, 15 min preincubation with 100 μM NADPH.
Experimental: as §1, §2
The target in the next data set is T3, Human GR (Homo sapiens, UniProt P00390).
T3 sequence (P00390 44-522): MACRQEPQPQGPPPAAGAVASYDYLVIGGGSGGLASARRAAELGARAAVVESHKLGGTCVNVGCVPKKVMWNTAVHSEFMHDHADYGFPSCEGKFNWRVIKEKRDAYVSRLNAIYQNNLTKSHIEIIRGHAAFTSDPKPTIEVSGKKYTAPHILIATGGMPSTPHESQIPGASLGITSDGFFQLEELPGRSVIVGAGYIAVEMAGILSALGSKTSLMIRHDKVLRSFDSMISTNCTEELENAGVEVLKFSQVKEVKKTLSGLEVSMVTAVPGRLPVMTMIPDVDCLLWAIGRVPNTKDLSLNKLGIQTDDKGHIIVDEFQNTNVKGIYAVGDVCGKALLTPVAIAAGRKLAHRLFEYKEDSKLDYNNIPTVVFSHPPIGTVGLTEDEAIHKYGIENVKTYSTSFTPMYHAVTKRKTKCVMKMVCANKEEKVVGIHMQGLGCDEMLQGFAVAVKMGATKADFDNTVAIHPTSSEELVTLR
To be noted: read-out: IC50 Human GR, GSSG; cited from earlier work.

Another data set concerns Human TGR. Conditions: cited from earlier work; for Specific activity, Human TGR: NADPH + substrate; for Km: read-out: Apparent Km, Human TGR.
The subject of another data set is Human TrxR1. Conditions: cited from earlier work; for Specific activity, Human TrxR1: NADPH + substrate, ND, no activity detected; for Km: read-out: Apparent Km, Human TrxR1.
Data set [6] concerns the target T1, S. mansoni TGR. Kind of data set: biochemical. Conditions: read-out: Activity of Enzyme (% of Uninhibited Enzyme).
Experimental: as §1, §2
For another data set, the system named is schistosomula. Put plainly: Schistosomula survival after RNAi and/or drug treatment. It is filed as cell-based, Schistosoma mansoni. To be noted: 2 μM praziquantel.
[7] abbreviates: substrate of TGR (20 nM), 25 °C, pH 7.4, 100 μM NADPH.
The mark [8] stands for this setting: substrate of TGR (20 nM), 25 °C, pH 7.4, 100 μM NADPH, ± SD.
[9] abbreviates: 3 mM DTNB, 15 min preincubation with 100 μM NADPH.
Where [10] appears, read: 100 μM GSSG, 15 min preincubation with 100 μM NADPH.
Where [11] appears, read: read-out: Apparent Km, S. mansoni TGR.

Experimental for schistosomula: Cercariae were mechanically transformed to schistosomula by vortexing, and bodies were separated from tails by Percoll gradient centrifugation as described [13]. Immediately after transformation, TGR dsRNA or irrelevant dsRNA (each at 54 μg/ml) was added to ~500 schistosomula in 50 μl water followed by incubation at 37 °C for 30 min. After addition of 250 μl of RPMI-1640 medium, 300 U/ml penicillin, and 175 μg/ml streptomycin, parasites were incubated at 37 °C in 5% CO2 atmosphere for 4 d. Reduced O2 tension was obtained by filtering media and purging with 95% N2, 5% CO2 for 20 min before use. Parasites were cultured during the course of the experiment in the appropriate gaseous mix at 37 °C in a sealed modular incubator chamber (Billups-Rothenberg, http://www.brincubator.com) flushed with the same gaseous mix. On day 2 of the experiment, 50 μl of fresh media was added. Schistosomula were assessed daily for viability by microscopy. For each time point at least 1,500 parasites were scored as alive or dead in each experiment (three replicates of 500 each), and each experiment was repeated three times.
(B) Parasites were cultured in the presence of double-stranded TGR RNA (dashed lines) or of double-stranded irrelevant RNA (solid lines) in 20% O2 (♦) or 0% O2 (). […] (C) Combination of RNAi and drug treatments. Solid lines are irrelevant dsRNA treatments and dashed lines are dsTGR treatments; no additions (♦), 2 μM praziquantel () and 2 μM AF (▴). […] In each experiment for each time point at least 1,500 parasites were scored as alive or dead (three replicates of 500 parasites). The error bars represent the standard deviations of three independent experiments.

As to `O=C(O)CCCC[C@@H]1CCSS1` (racemic) [Lipoic acid], the kcat on S. mansoni TGR [1] (setting [7]) worked out at 1.7 s⁻¹. On S. mansoni TGR [1] (setting [8]), the Km was determined as 2610 µM and the maximal velocity (Vmax) was 2.03 ± 0.135 µM/min.

In the case of `OC[C@H]1O[C@H]([S-])[C@H](O)[C@@H](O)[C@@H]1O.[Au+]` [Aurothioglucose], the IC50 on Human TrxR is 65 nM; at S. mansoni TGR [2], 70 nM; on S. mansoni TGR [4], 3000 nM; on S. mansoni TGR [5], 400 nM; on Human GR it was greater than 100000 nM. Further, the “Activity of Enzyme (% of Uninhibited Enzyme)” value on S. mansoni TGR [3] came out at 0%.

For `O=C(O)CC([S-])C(=O)O.[Au+]` (stereo not drawn) [Aurothiomalate], the IC50 on Human TrxR was 280 nM; at S. mansoni TGR [2] (setting [9]), 90 nM; at S. mansoni TGR [4] (setting [10]) it was 50 nM; on S. mansoni TGR [5], 50 nM. Moreover, on S. mansoni TGR [3], the activity was determined as 0%.

For `CN(C)CCC(=O)c1ccccc1` [Compound 3-DAP], the IC50 on S. mansoni TGR [2] (setting [9]) was 500 nM; at S. mansoni TGR [4] (setting [10]) it was 7000 nM.

Take `OO` [Compound H2O2, H2O2]: the kcat at S. mansoni TGR [1] (setting [7]) turned out to be 9.4 s⁻¹. For the same molecule, at S. mansoni TGR [1] (setting [8]), the Km came out at 68000 µM and the Vmax turned out to be 11.3 ± 0.46 µM/min.

Consider `O=C1C=CC(=O)c2ccccc21` [Compound M5], for which the activity on S. mansoni TGR [3] was 37%.

Consider `O=C1OC(C(O)CO)C(=O)C1=O` (stereo not drawn) [DHAA, dehydroascorbic acid], for which the kcat on S. mansoni TGR [1] (setting [7]) was less than 0.25 s⁻¹. On S. mansoni TGR [1] (setting [8]), the Vmax was less than 0.3 µM/min.

For the molecule `O=C(O)c1cc(SSc2ccc([N+](=O)[O-])c(C(=O)O)c2)ccc1[N+](=O)[O-]` [DTNB, 5,5′-dithiobis(2-nitrobenzoic acid)], in the data set with Human TGR, the “Specific activity, Human TGR” value was 3.1 µmol/min/mg; the “Apparent kcat, Human TGR” value was 6.5 s⁻¹; the Km was 14.7 µM. On S. mansoni TGR [1], the “Specific activity, S. mansoni TGR” value was 10.2 µmol/min/mg and the “Specific activity of recombinant TGR with substrate” value (shortened to “Specific activity … with substrate”) was 10.2 U/mg. Further, the kcat on S. mansoni TGR [1] (setting [7]) came out at 16 s⁻¹. At S. mansoni TGR [1] (setting [8]), the Km is 114 ± 9 µM and the Vmax was found to be 19.2 ± 1.6 µM/min. In the data set with Human TrxR1, the “Specific activity, Human TrxR1” value was 25 µmol/min/mg; the “Apparent kcat, Human TrxR1” value was 86 s⁻¹; the Km was 212 µM.

Consider `OCCSSCCO` [HED, β-hydroxyethyl disulfide], for which, in the data set on Human TGR, the “Specific activity, Human TGR” value was 1.9 µmol/min/mg; the “Apparent kcat, Human TGR” value is 1.2 s⁻¹; the Km is 45.2 µM. In addition, on S. mansoni TGR [1], the “Apparent kcat, S. mansoni TGR” value turned out to be 17.8 s⁻¹; the “Specific activity, S. mansoni TGR” value is 9.9 µmol/min/mg; the “Specific activity … with substrate” value worked out at 9.9 U/mg. Besides, the Km on S. mansoni TGR [1] (setting [11]) turned out to be 1870 µM. For the same molecule, the kcat at S. mansoni TGR [1] (setting [7]) is 17.8 s⁻¹. On S. mansoni TGR [1] (setting [8]), the Km came out at 1870 µM and the Vmax was 21.4 ± 0.33 µM/min.

As for `CC1=CC(=O)c2ccccc2C1=O` [Menadione], the activity at 50 µM on S. mansoni TGR [6] was 18%.

In the case of `CN(C)c1ccc2nc3ccc(=[N+](C)C)cc-3sc2c1` [Methylene blue], the activity at 50 µM at S. mansoni TGR [6] was 100%.

On to `O=[Se]([O-])[O-].[Na+].[Na+]` [Na2SeO3, sodium selenite], for which the kcat on S. mansoni TGR [1] (setting [7]) worked out at 2.1 s⁻¹. Also, on S. mansoni TGR [1] (setting [8]), the Km was found to be 66.7 ± 6.9 µM and the Vmax turned out to be 2.54 ± 0.046 µM/min.

For `O=C1C=CC(=O)c2c(O)ccc(O)c21` [Naphthazarin], at Human TrxR, the IC50 was 650 nM.

Regarding `CC1=CC(=O)c2c(O)cccc2C1=O` [Plumbagin], the activity at 50 µM on S. mansoni TGR [6] is 15%.

Take `O=C(C1CCCCC1)N1CC(=O)N2CCc3ccccc3C2C1` (stereo not drawn) [Praziquantel]: at S. mansoni TGR [6], the activity at 50 µM worked out at 100%. Besides, the “Inhibition of TGR, in words” value at S. mansoni TGR [3] was “no inhibitory activity”. Further, in the data set on schistosomula, the “Effect on schistosomula survival alone or in combination with RNAi” value is reported as “no effect”.

Take `Cc1cc2nc3cc(C)c(N)cc3[n+](-c3ccccc3)c2cc1N` [Safranin]: the activity on S. mansoni TGR [3] stood at 75%.

`COC1=C(OC)C(=O)C(C/C=C(\C)CC/C=C(\C)CC/C=C(\C)CC/C=C(\C)CC/C=C(\C)CC/C=C(\C)CC/C=C(\C)CC/C=C(\C)CC/C=C(\C)CCC=C(C)C)=C(C)C1=O` [Ubiquinone]: at S. mansoni TGR [1] (setting [7]), the kcat was less than 0.25 s⁻¹. Also, the Vmax on S. mansoni TGR [1] (setting [8]) was less than 0.3 µM/min.

Consider `CC(C)(C)OO` [t-Butyl-OOH, tert-butyl hydroperoxide], for which the kcat at S. mansoni TGR [1] (setting [7]) was 10.7 s⁻¹. Further, at S. mansoni TGR [1] (setting [8]), the Km amounted to 48600 µM and the Vmax was found to be 12.8 ± 0.33 µM/min.

B1: Trx: 12 kDa protein thioredoxin, substrate of TrxR and TGR enzymes (protein, UniProt P10599 2-105, looked up)
Thioredoxin: VKQIESKTAFQEALDAAGDKLVVVDFSATWCGPCKMIKPFFHSLSEKYSNVIFLEVDVDDCQDVASECEVKCMPTFQFFKKGQKVGEFSGANKEKLEATINELV
For the molecule B1, in the data set on Human TGR, the “Specific activity, Human TGR” value is 4.2 µmol/min/mg; the “Apparent kcat, Human TGR” value is 5.7 s⁻¹; the Km was 3 µM. Also, in the data set with S. mansoni TGR [1], the “Apparent kcat, S. mansoni TGR” value came out at 30 s⁻¹; the “Specific activity, S. mansoni TGR” value worked out at 2.2 µmol/min/mg; the “Specific activity … with substrate” value was found to be 2.2 U/mg. Besides, the Km with S. mansoni TGR [1] (setting [11]) was determined as 6.37 µM. Moreover, in the data set on Human TrxR1, the “Specific activity, Human TrxR1” value is 5.9 µmol/min/mg; the “Apparent kcat, Human TrxR1” value was 9.8 s⁻¹; the Km is 4.73 µM.
